From publication PMC11032351, “Epigenetic modulation through BET bromodomain inhibitors as a novel therapeutic strategy for progranulin-deficient frontotemporal dementia” (Scientific Reports, 2024)

Legend:
Format in all cases: binding
Recombinant BRD4(BD1) = target: T1, Recombinant BRD4(BD1) (Homo sapiens, UniProt O60885); assay: TR-FRET ligand displacement, recombinant GST-BRD4(BD1); conditions: for Kd: GST-tagged, with 95% confidence interval
T1 construct: using the recombinant, individually purified bromodomains of BRD4 (GST-tagged BD1 and BD2); purchased BPS Biosciences, Inc 31,040
Procedure: (§1) Unless otherwise noted, experiments were performed in white, 384-well microtiter plates (Corning 3572 or PerkinElmer ProxiPlate-384 Plus) in 30 μL or 10 μL assay volume, respectively. TR-FRET measurements were acquired on a Tecan SPARK plate reader with SPARKCONTROL software version V2.1 (Tecan Group Ltd.), with the following settings: 340/50 nm excitation, 490/10 nm (Tb), 520/10 nm (FITC) emission, 100 μs delay, and 400 μs integration. The 490/10 and 520/10 nm emission channels were acquired with a 50% mirror and a dichroic 510 mirror, respectively, using independently optimized detector gain settings unless specified otherwise. The TR-FRET ratio was taken as the 520/490 nm intensity ratio on a per-well basis.
Assays were performed as described. Recombinant BRD4(BD1) and BRD4(BD2) were purchased from BPS Biosciences, Inc and Epicypher, Inc (GST-BRD4(BD1), 31,040; GST-BRD4(BD2), 15–0013, respectively). Recombinant bromodomains were diluted to 0.5 nM in assay buffer (25 mM HEPES, 150 mM NaCl, 0.5 mg/mL BSA, 0.005% TWEEN-20, pH 7.5) with 2 nM CoraFluor-1-labeled GST VHH (ChromoTek ST-250), then JQ1-FITC was added in serial dilution (cmax = 100 nM) using an HP D300 digital dispenser and allowed to equilibrate for 2 h at room temperature before TR-FRET measurements were taken. Nonspecific signal was determined with 50 μM JQ1-Acid, and data were fitted to a One Site–Specific Binding model in Prism 9. The KD determined from the one-site model was then used in Eq. 1 to adjust for a two-site model due to the dimeric GST protein:1 KD,2-site=KD,1-site×(1+2)
(§2) The following assay parameters have been used: (i) 4 nM GST-BRD4(BD1), 4 nM CoraFluor-labeled GST VHH, 20 nM JQ1-FITC in assay buffer, (ii) 4 nM GST-BRD4(BD2), 4 nM CoraFluor-labeled GST VHH, 20 nM JQ1-FITC in assay buffer, (iii) HEK293T or NPC cell lysate at 0.8 mg/mL total protein, 1 nM rabbit anti-BRD4 antibody, 2 nM CoraFluor-labeled anti-rabbit Nano-Secondary, 20 nM JQ1-FITC. For all experiments, test compounds were added in serial dilution (cmax = 10 μM) using an HP D300 digital dispenser and allowed to equilibrate for 2 h at room temperature before TR-FRET measurements were taken. The assay floor (background) was defined with the 10 μM mivebresib dose, and the assay ceiling (top) was defined via a no-inhibitor control. Data were fitted to a four-parameter dose–response model in Prism 9.
(§3) For TR-FRET ligand displacement assays with recombinant bromodomains, we have determined the KD of the respective fluorescent tracer (JQ1-FITC) under each assay condition. For endogenous BRD4 in whole cell extract, we have determined the KD,app of JQ1-FITC under each assay condition. Inhibitor KD and KD,app values have been calculated using Cheng-Prusoff principles, outlined in Eq. 2 below:2 KDorKD,app=IC50/1+[S]/KX where IC50 is the measured IC50 value, [S] is the concentration of fluorescent tracer, and KX is the KD or KD,app of the fluorescent tracer for a given condition.

Endogenous BRD4 (NPC) = target: T2, Endogenous BRD4 (NPC) (Homo sapiens, UniProt O60885); assay: CoraFluor TR-FRET ligand displacement, endogenous BRD4 in NPC lysate; conditions: with 95% confidence interval, read-out: Endogenous BRD4 (NPC), KD,app
T2 construct: target engagement toward endogenous BRD4 derived from cellular lysates of cell types of interest; endogenous in cells; host or cells: 8330-8 human iPSC-derived neural progenitor cells
Procedure: (§4) A cell pellet from one 15 cm dish (~ 25 M cells) of HEK293T cells, or from one confluent T-75 flask 8330-8 NPC cells (~ 9 M cells), was allowed to thaw on ice and cells were suspended in 400 μL lysis buffer (25 mM HEPES, 150 mM NaCl, 0.2% (v/v) Triton X-100, 0.02% (v/v) TWEEN-20, pH 7.5 supplemented with 2 mM DTT and one Roche cOmplete, Mini, EDTA-free protease inhibitor cocktail tablet (Sigma 11,836,170,001) per 7 mL. Cells were homogenized via passage through a 27.5-gauge needle 5 times, and the resulting mixture was incubated with slow, end-over-end mixing at 4 °C for 15 min. The lysate was clarified via centrifugation at 16,100 × g for 10 min at 4 °C then 800 μL (1:3 dilution) dilution buffer (25 mM HEPES, 150 mM NaCl, 0.005% (v/v) TWEEN-20, pH 7.5) was added and the lysate was re-clarified at 16,100 × g for 10 min at 4 °C. Total protein was quantified via detergent-compatible Bradford assay (ThermoFisher 23,246). The lysate was used fresh or flash-frozen in liquid nitrogen and stored at − 80 °C in single-use aliquots.
as §1
(§5) For the profiling of endogenous BRD4, cell lysates as prepared above were diluted to 0.8 mg/mL total protein in 1:3 lysis buffer:dilution buffer with 0.5 nM rabbit anti-BRD4 antibody (Cell Signaling Technology; E2A7X) and 1 nM CoraFluor-1-labeled anti-rabbit Nano-Secondary (ChromoTek CTK0101). JQ1-FITC was added in serial dilution (cmax = 200 nM) using an HP D300 digital dispenser and allowed to equilibrate for 2 h at room temperature before TR-FRET measurements were taken. Nonspecific signal was determined with 50 μM JQ1-Acid, and data were fitted to a One Site–Specific Binding model in Prism 9. The KD,app determined from the one-site model was then adjusted for a two-site model using Eq. 1.
as §2, §3

[1] = target: T3, Endogenous BRD4 (HEK293T) (Homo sapiens, UniProt O60885); assay: CoraFluor TR-FRET ligand displacement, endogenous BRD4 in HEK293T lysate; conditions: with 95% confidence interval, read-out: Endogenous BRD4 (HEK293T), KD,app
T3 construct: target engagement toward endogenous BRD4 derived from cellular lysates of cell types of interest; endogenous in cells; host or cells: HEK293T
Procedure: as §4, §1, §5, §2, §3

Row | SMILES | Kd (Recombinant BRD4(BD1)) [nM] | Kd (Endogenous BRD4 (NPC)) [nM] | Kd [1] [nM] | selectivity for BD1 over BD2 (Recombinant BRD4(BD1); recombinant BRD4 BD1 vs BD2)
1 | Cn1ccc2c(-c3cc(F)cnc3Oc3ccc(F)cc3)c[nH]c2c1=O [Compound 86B, 3-(5-fluoro-2-(4-fluorophenoxy)pyridin-3-yl)-6-methyl-1,6-dihydro-7H-pyrrolo[2,3-c]pyridin-7-one] | 2640 | 5900 | 7150 | 
2 | Cn1ccc2c(-c3cccnc3Oc3ccc(F)c(F)c3)c[nH]c2c1=O [Compound 81B, 3-(2-(3,4-difluorophenoxy)pyridin-3-yl)-6-methyl-1,6-dihydro-7H-pyrrolo[2,3-c]pyridin-7-one] | 126 | 532 | 538 | 
3 | Cn1ccc2c(-c3cccnc3Sc3ccc(F)cc3)c[nH]c2c1=O [Compound 84B, 3-(2-((4-fluorophenyl)thio)pyridin-3-yl)-6-methyl-1,6-dihydro-7H-pyrrolo[2,3-c]pyridin-7-one] | 43 | 195 | 196 | 
4 | Cn1cc(-c2cccnc2Oc2cc(F)cc(F)c2)c2cc[nH]c2c1=O [Compound 82A, 4-(2-(3,5-difluorophenoxy)pyridin-3-yl)-6-methyl-1,6-dihydro-7H-pyrrolo[2,3-c]pyridin-7-one] | 41 | 45 | 49 | 
5 | Cn1cc(-c2cccnc2Sc2ccc(F)cc2)c2cc[nH]c2c1=O [Compound 84A, 4-(2-((4-fluorophenyl)thio)pyridin-3-yl)-6-methyl-1,6-dihydro-7H-pyrrolo[2,3-c]pyridin-7-one] | 303 | 378 | 370 | 
6 | Cn1ccc2c(-c3cccnc3Oc3ccc(F)cc3)c[nH]c2c1=O [Compound 18B, 3-[2-(4-fluorophenoxy)pyridin-3-yl]-6-methyl-1,6-dihydro-7H-pyrrolo[2,3-c]pyridin-7-one] | 46 | 131 | 121 | 
7 | Cn1ccc2c(-c3cccnc3Oc3cc(F)cc(F)c3)c[nH]c2c1=O [Compound 82B, 3-(2-(3,5-difluorophenoxy)pyridin-3-yl)-6-methyl-1,6-dihydro-7H-pyrrolo[2,3-c]pyridin-7-one] | 147 | 430 | 519 | 
8 | Cn1cc(-c2cccnc2Oc2ccc(F)cc2)c2cc[nH]c2c1=O [Compound 18A, 4-(2-(4-fluorophenoxy)pyridin-3-yl)-6-methyl-1H-pyrrolo[2,3-c]pyridin-7(6H)-one] | 28 | 46 | 44 | 
9 | Cn1ccc2c(-c3cccnc3Nc3ccc(F)cc3)c[nH]c2c1=O [Compound 85B, 3-(2-((4-fluorophenyl)amino)pyridin-3-yl)-6-methyl-1,6-dihydro-7H-pyrrolo[2,3-c]pyridin-7-one] | 951 | 3810 | 3910 | 
10 | Cn1cc(-c2cc(F)cnc2Oc2ccc(F)cc2)c2cc[nH]c2c1=O [Compound 86A, 4-(5-fluoro-2-(4-fluorophenoxy)pyridin-3-yl)-6-methyl-1,6-dihydro-7H-pyrrolo[2,3-c]pyridin-7-one] | 168 | 559 | 559 | 
11 | Cn1cc(-c2cccnc2Oc2ccc(F)c(F)c2)c2cc[nH]c2c1=O [Compound 81A, 4-(2-(3,4-difluorophenoxy)pyridin-3-yl)-6-methyl-1,6-dihydro-7H-pyrrolo[2,3-c]pyridin-7-one] | 29 | 32 | 30 | 
12 | Cn1cc(-c2cccnc2Nc2ccc(F)cc2)c2cc[nH]c2c1=O [Compound 85A, 4-(2-((4-fluorophenyl)amino)pyridin-3-yl)-6-methyl-1,6-dihydro-7H-pyrrolo[2,3-c]pyridin-7-one] | 76 | 100 | 93 | ~ 5.5 fold
